Assay results taken from patent US11427549B2, “Pyrimidinyloxy benzo-fused compounds as herbicides” (FMC Corporation, priority 2017, dated 2022).

Experiments:
[1] = test system: blackgrass (Alopecurus myosuroides); assay: Test A postemergence, blackgrass; type: in vivo; conditions: Alopecurus myosuroides, post-emergence, 240 h, 0 to 100 scale (0 no effect, 100 complete control), read-out: Plant response rating, Blackgrass; for pest or weed control at 31 g/ha: 31 g ai/ha; for pest or weed control at 125 g/ha: 125 g ai/ha
From the text: (§1) Seeds of plant species selected from barnyardgrass (Echinochloa crus-galli), kochia (Kochia scoparia), ragweed (common ragweed, Ambrosia elatior), ryegrass, Italian (Italian ryegrass, Lolium multiflorum), foxtail, giant (giant foxtail, Setaria faberii), foxtail, green (green foxtail, Setaria viridis) and pigweed (Amaranthus retroflexus) were planted into a blend of loam soil and sand and treated preemergence with a directed soil spray using test chemicals formulated in a non-phytotoxic solvent mixture which included a surfactant.
(§2) At the same time, plants selected from these weed species and also wheat (Triticum aestivum), corn (Zea mays), blackgrass (Alopecurus myosuroides), and galium (catchweed bedstraw, Galium aparine) were planted in pots containing the same blend of loam soil and sand and treated with postemergence applications of test chemicals formulated in the same manner. Plants ranged in height from 2 to 10 cm and were in the one- to two-leaf stage for the postemergence treatment. Treated plants and untreated controls were maintained in a greenhouse for approximately 10 days, after which time all treated plants were compared to untreated controls and visually evaluated for injury. […] A dash (-) response means no test result.

[2] = test system: kochia (Kochia scoparia); assay: Test A postemergence, kochia; type: in vivo; conditions: Bassia scoparia, post-emergence, 240 h, 0 to 100 scale (0 no effect, 100 complete control), read-out: Plant response rating, Kochia; for pest or weed control at 31 g/ha: 31 g ai/ha; for pest or weed control at 125 g/ha: 125 g ai/ha
From the text: as §1, §2

[3] = test system: wheat (Triticum aestivum); assay: Test A postemergence, wheat; type: in vivo; conditions: Triticum aestivum, post-emergence, 240 h, 0 to 100 scale (0 no effect, 100 complete control), read-out: Plant response rating, Wheat; for plant injury at 31 g/ha: 31 g ai/ha; for plant injury at 125 g/ha: 125 g ai/ha
From the text: as §1, §2

[4] = test system: ragweed (common ragweed, Ambrosia elatior); assay: Test A preemergence, ragweed; type: in vivo; conditions: Ambrosia artemisiifolia, pre-emergence, 240 h, 0 to 100 scale (0 no effect, 100 complete control), read-out: Plant response rating, Ragweed
From the text: as §1, §2

[5] = test system: pigweed (Amaranthus retroflexus); assay: Test A postemergence, pigweed; type: in vivo; conditions: Amaranthus retroflexus, post-emergence, 240 h, 0 to 100 scale (0 no effect, 100 complete control), read-out: Plant response rating, Pigweed; for pest or weed control at 31 g/ha: 31 g ai/ha; for pest or weed control at 125 g/ha: 125 g ai/ha
From the text: as §1, §2

[6] = test system: ragweed (common ragweed, Ambrosia elatior); assay: Test A postemergence, ragweed; type: in vivo; conditions: Ambrosia artemisiifolia, post-emergence, 240 h, 0 to 100 scale (0 no effect, 100 complete control), read-out: Plant response rating, Ragweed; for pest or weed control at 31 g/ha: 31 g ai/ha; for pest or weed control at 125 g/ha: 125 g ai/ha
From the text: as §1, §2

[7] = test system: corn (Zea mays); assay: Test A postemergence, corn; type: in vivo; conditions: Zea mays, post-emergence, 240 h, 0 to 100 scale (0 no effect, 100 complete control); for Corn plant response rating (crop injury, 0 = no effect, 100 = complete kill) at 31 g/ha: 31 g ai/ha; for Corn plant response rating (crop injury, 0 = no effect, 100 = complete kill) at 125 g/ha: 125 g ai/ha
From the text: as §1, §2

[8] = test system: pigweed (Amaranthus retroflexus); assay: Test A preemergence, pigweed; type: in vivo; conditions: Amaranthus retroflexus, pre-emergence, 240 h, 0 to 100 scale (0 no effect, 100 complete control), read-out: Plant response rating, Pigweed; for pest or weed control at 31 g/ha: 31 g ai/ha; for pest or weed control at 125 g/ha: 125 g ai/ha
From the text: as §1, §2

[9] = test system: barnyardgrass (Echinochloa crus-galli); assay: Test A preemergence, barnyardgrass; type: in vivo; conditions: Echinochloa crus-galli, pre-emergence, 240 h, 0 to 100 scale (0 no effect, 100 complete control), read-out: Plant response rating, Barnyardgrass; for pest or weed control at 31 g/ha: 31 g ai/ha; for pest or weed control at 125 g/ha: 125 g ai/ha
From the text: as §1, §2

[10] = test system: galium (catchweed bedstraw, Galium aparine); assay: Test A postemergence, galium; type: in vivo; conditions: Galium, post-emergence, 240 h, 0 to 100 scale (0 no effect, 100 complete control), read-out: Plant response rating, Galium; for pest or weed control at 31 g/ha: 31 g ai/ha; for pest or weed control at 125 g/ha: 125 g ai/ha
From the text: as §1, §2

[11] = test system: kochia (Kochia scoparia); assay: Test A preemergence, kochia; type: in vivo; conditions: Bassia scoparia, pre-emergence, 240 h, 0 to 100 scale (0 no effect, 100 complete control), read-out: Plant response rating, Kochia; for pest or weed control at 31 g/ha: 31 g ai/ha; for pest or weed control at 125 g/ha: 125 g ai/ha
From the text: as §1, §2

[12] = test system: barnyardgrass (Echinochloa crus-galli); assay: Test A postemergence, barnyardgrass; type: in vivo; conditions: Echinochloa crus-galli, post-emergence, 240 h, 0 to 100 scale (0 no effect, 100 complete control), read-out: Plant response rating, Barnyardgrass; for pest or weed control at 31 g/ha: 31 g ai/ha; for pest or weed control at 125 g/ha: 125 g ai/ha
From the text: as §1, §2

[13] = test system: ryegrass, Italian (Italian ryegrass, Lolium multiflorum); assay: Test A preemergence, ryegrass, Italian; type: in vivo; conditions: Lolium multiflorum, pre-emergence, 240 h, 0 to 100 scale (0 no effect, 100 complete control), read-out: Plant response rating, Ryegrass, Italian; for pest or weed control at 31 g/ha: 31 g ai/ha; for pest or weed control at 125 g/ha: 125 g ai/ha
From the text: as §1, §2

[14] = test system: ryegrass, Italian (Italian ryegrass, Lolium multiflorum); assay: Test A postemergence, ryegrass, Italian; type: in vivo; conditions: Lolium multiflorum, post-emergence, 240 h, 0 to 100 scale (0 no effect, 100 complete control), read-out: Plant response rating, Ryegrass, Italian; for pest or weed control at 31 g/ha: 31 g ai/ha; for pest or weed control at 125 g/ha: 125 g ai/ha
From the text: as §1, §2

[15] = test system: ducksalad (Heteranthera limosa); assay: Test B flooded paddy test, ducksalad; conditions: Heteranthera limosa, read-out: Plant response rating, Ducksalad (0 to 100 scale, 0 is no effect, 100 is complete control)
[16] = test system: barnyardgrass (Echinochloa crus-galli); assay: Test B flooded paddy test, barnyardgrass; conditions: Echinochloa crus-galli, read-out: Plant response rating, Barnyardgrass (0 to 100 scale, 0 is no effect, 100 is complete control)
[17] = test system: rice (Oryza sativa); assay: Test B flooded paddy test, rice; conditions: Oryza sativa, read-out: Plant response rating, Rice (0 to 100 scale, 0 is no effect, 100 is complete control)

O=C1OCc2cccc(Oc3ncc(Cl)cn3)c2C1CCCC(F)(F)F (centres unmarked) [Compound 26, 5-[(5-Chloro-2-pyrimidinyl)oxy]-1,4-dihydro-4-(4,4,4-trifluorobutyl)-3H-2-benzopyran-3-one]
pest or weed control at 31 g/ha [1]: 0%
pest or weed control at 125 g/ha [1]: 0%
pest or weed control at 31 g/ha [2]: 20%
pest or weed control at 125 g/ha [2]: 60%
plant injury at 31 g/ha [3]: 0%
plant injury at 125 g/ha [3]: 0%
pest or weed control at 31 g/ha ([4]; 31 g ai/ha): 0%
pest or weed control at 125 g/ha ([4]; 125 g ai/ha): 0%
pest or weed control at 31 g/ha [5]: 30%
pest or weed control at 125 g/ha [5]: 60%
pest or weed control at 31 g/ha [6]: 0%
pest or weed control at 125 g/ha [6]: 10%
Corn plant response rating (crop injury, 0 = no effect, 100 = complete kill) at 31 g/ha [7]: 10%
Corn plant response rating (crop injury, 0 = no effect, 100 = complete kill) at 125 g/ha [7]: 20%
pest or weed control at 31 g/ha [8]: 20%
pest or weed control at 125 g/ha [8]: 100%
pest or weed control at 31 g/ha [9]: 0%
pest or weed control at 125 g/ha [9]: 30%
pest or weed control at 31 g/ha [10]: 20%
pest or weed control at 125 g/ha [10]: 50%
pest or weed control at 31 g/ha [11]: 0%
pest or weed control at 125 g/ha [11]: 20%
pest or weed control at 31 g/ha [12]: 100%
pest or weed control at 125 g/ha [12]: 100%
pest or weed control at 31 g/ha [13]: 0%
pest or weed control at 125 g/ha [13]: 10%
pest or weed control at 31 g/ha [14]: 0%
pest or weed control at 125 g/ha [14]: 0%

FC(F)(F)CCC1COc2cccc(Oc3ncc(Cl)cn3)c21 (centres unmarked) [Compound 36, 5-Chloro-2-[[2,3-dihydro-3-(3,3,3-trifluoropropyl)-4-benzofuranyl]oxy]pyrimidine]
pest or weed control at 31 g/ha [1]: 0%
pest or weed control at 125 g/ha [1]: 0%
pest or weed control at 31 g/ha [2]: 30%
pest or weed control at 125 g/ha [2]: 50%
plant injury at 31 g/ha [3]: 0%
plant injury at 125 g/ha [3]: 0%
pest or weed control at 250 g/ha [15]: 50%
pest or weed control at 31 g/ha [5]: 10%
pest or weed control at 125 g/ha [5]: 10%
pest or weed control at 31 g/ha [6]: 0%
pest or weed control at 125 g/ha [6]: 0%
Corn plant response rating (crop injury, 0 = no effect, 100 = complete kill) at 31 g/ha [7]: 0%
Corn plant response rating (crop injury, 0 = no effect, 100 = complete kill) at 125 g/ha [7]: 0%
pest or weed control at 31 g/ha [8]: 0%
pest or weed control at 125 g/ha [8]: 0%
pest or weed control at 31 g/ha [9]: 0%
pest or weed control at 125 g/ha [9]: 0%
pest or weed control at 31 g/ha [10]: 10%
pest or weed control at 125 g/ha [10]: 10%
pest or weed control at 31 g/ha [11]: 0%
pest or weed control at 125 g/ha [11]: 0%
pest or weed control at 31 g/ha [12]: 0%
pest or weed control at 125 g/ha [12]: 10%
pest or weed control at 250 g/ha [16]: 0%
pest or weed control at 31 g/ha [13]: 0%
pest or weed control at 125 g/ha [13]: 0%
pest or weed control at 31 g/ha [14]: 0%
pest or weed control at 125 g/ha [14]: 0%
plant injury at 250 g/ha [17]: 0%

FC(F)(F)CCCC1COc2cccc(Oc3ncc(Cl)cn3)c21 (centres unmarked) [Compound 33, 5-Chloro-2-[[2,3-dihydro-3-(4,4,4-trifluorobutyl)-4-benzofuranyl]oxy]pyrimidine]
pest or weed control at 31 g/ha [1]: 0%
pest or weed control at 125 g/ha [1]: 20%
pest or weed control at 31 g/ha [2]: 30%
pest or weed control at 125 g/ha [2]: 40%
plant injury at 31 g/ha [3]: 0%
plant injury at 125 g/ha [3]: 0%
pest or weed control at 250 g/ha [15]: 70%
pest or weed control at 31 g/ha [5]: 20%
pest or weed control at 125 g/ha [5]: 30%
pest or weed control at 31 g/ha [6]: 0%
pest or weed control at 125 g/ha [6]: 10%
Corn plant response rating (crop injury, 0 = no effect, 100 = complete kill) at 31 g/ha [7]: 0%
Corn plant response rating (crop injury, 0 = no effect, 100 = complete kill) at 125 g/ha [7]: 0%
pest or weed control at 31 g/ha [8]: 0%
pest or weed control at 125 g/ha [8]: 10%
pest or weed control at 31 g/ha [9]: 0%
pest or weed control at 125 g/ha [9]: 50%
pest or weed control at 31 g/ha [10]: 50%
pest or weed control at 125 g/ha [10]: 70%
pest or weed control at 31 g/ha [11]: 0%
pest or weed control at 125 g/ha [11]: 0%
pest or weed control at 31 g/ha [12]: 10%
pest or weed control at 125 g/ha [12]: 20%
pest or weed control at 250 g/ha [16]: 0%
pest or weed control at 31 g/ha [13]: 0%
pest or weed control at 125 g/ha [13]: 50%
pest or weed control at 31 g/ha [14]: 0%
pest or weed control at 125 g/ha [14]: 0%
plant injury at 250 g/ha [17]: 0%
